Test [1] has as its target T1, FLT3-ITD (Homo sapiens, UniProt P36888).
T1 construct: FLT3-ITD; Invitrogen #PV6190
T1 sequence (P36888 1-993): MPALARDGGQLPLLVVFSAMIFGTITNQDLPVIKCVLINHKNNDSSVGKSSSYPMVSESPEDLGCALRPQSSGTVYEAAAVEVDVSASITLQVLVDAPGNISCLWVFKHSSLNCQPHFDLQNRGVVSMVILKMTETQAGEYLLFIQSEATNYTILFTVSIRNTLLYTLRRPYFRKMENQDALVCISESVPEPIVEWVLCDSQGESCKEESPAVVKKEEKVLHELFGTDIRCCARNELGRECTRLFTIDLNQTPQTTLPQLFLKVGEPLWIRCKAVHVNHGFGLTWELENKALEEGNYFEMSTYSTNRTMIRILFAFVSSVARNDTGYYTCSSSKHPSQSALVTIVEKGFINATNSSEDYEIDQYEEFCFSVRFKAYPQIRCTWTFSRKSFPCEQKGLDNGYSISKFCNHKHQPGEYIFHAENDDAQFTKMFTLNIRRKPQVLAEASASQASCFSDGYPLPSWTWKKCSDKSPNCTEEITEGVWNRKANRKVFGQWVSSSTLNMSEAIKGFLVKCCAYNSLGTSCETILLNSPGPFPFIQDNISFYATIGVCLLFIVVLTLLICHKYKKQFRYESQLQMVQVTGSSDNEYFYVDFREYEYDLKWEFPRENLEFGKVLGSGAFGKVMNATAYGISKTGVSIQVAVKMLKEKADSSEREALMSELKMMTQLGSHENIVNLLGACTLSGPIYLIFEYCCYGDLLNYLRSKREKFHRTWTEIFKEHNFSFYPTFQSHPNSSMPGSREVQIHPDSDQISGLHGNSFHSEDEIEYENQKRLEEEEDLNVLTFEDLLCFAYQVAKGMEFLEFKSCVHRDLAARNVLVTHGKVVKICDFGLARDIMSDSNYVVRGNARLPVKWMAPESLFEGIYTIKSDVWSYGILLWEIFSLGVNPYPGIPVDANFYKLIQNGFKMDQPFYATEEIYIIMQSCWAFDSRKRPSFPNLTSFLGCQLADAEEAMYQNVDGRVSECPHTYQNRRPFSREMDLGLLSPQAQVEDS
Kind of test: FLT3-ITD biochemical kinase assay (AlphaScreen). Put shortly: (§1)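 Recombinant FLT3 mutant kinases phosphorylate biotin-poly(Glu4-Tyr) peptide (30 nM) at 10 μM ATP for D835Y or 100 μM for ITD. Phosphorylation detected by AlphaScreen: streptavidin donor beads (20 min) then anti-phosphotyrosine PY20 acceptor beads (60 min, RT), signal at 580 nm; inhibition lowers signal.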
In general terms: In Alpha technology, singlet oxygen from a donor bead excites a nearby acceptor bead.

In test [2] the target is T2, FLT3-D835Y (Homo sapiens, UniProt P36888, D835Y).
T2 construct: purchased Invitrogen PV3967
T2 sequence (P36888 27-993 D835Y): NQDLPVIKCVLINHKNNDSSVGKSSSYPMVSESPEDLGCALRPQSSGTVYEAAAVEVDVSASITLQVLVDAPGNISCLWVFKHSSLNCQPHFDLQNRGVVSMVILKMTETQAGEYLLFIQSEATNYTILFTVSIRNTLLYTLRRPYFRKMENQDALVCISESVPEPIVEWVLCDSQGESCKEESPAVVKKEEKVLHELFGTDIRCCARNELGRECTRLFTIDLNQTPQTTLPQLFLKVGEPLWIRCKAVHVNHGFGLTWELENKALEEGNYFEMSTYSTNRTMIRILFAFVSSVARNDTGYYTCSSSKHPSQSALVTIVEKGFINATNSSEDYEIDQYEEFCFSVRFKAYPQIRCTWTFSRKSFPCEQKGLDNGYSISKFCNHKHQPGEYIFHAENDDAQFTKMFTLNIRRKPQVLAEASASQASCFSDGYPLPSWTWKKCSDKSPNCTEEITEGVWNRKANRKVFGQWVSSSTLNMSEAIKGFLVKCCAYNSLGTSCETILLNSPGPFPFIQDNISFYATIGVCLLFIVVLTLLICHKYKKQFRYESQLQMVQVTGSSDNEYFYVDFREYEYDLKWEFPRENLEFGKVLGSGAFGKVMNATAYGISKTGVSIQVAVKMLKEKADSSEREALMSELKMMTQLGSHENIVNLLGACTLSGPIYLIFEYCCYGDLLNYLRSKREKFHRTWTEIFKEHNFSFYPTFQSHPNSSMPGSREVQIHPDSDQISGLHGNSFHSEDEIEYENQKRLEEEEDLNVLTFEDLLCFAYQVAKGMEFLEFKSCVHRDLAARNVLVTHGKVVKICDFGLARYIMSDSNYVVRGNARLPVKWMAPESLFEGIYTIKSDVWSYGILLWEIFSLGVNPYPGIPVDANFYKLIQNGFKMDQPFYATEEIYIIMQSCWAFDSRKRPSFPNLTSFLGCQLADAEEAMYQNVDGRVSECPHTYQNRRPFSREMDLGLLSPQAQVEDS
The test is described as follows: FLT3-D835Y biochemical kinase assay (AlphaScreen). Put shortly: as §1

As to `CC(C)(C)n1cnc2ccc(-c3c[nH]c4ncc(C#Cc5cccc(OC(F)(F)F)c5)nc34)cc21` [P-249, 7-(3-tert-butylbenzimidazol-5-yl)-2-[2-[3-(trifluoromethoxy)phenyl]ethynyl]-5H-pyrrolo[2,3-b]pyrazine], the IC50 in test [1] and in test [2] was 0.0001 to 1 µM in each case.

For `COc1cc(-c2cnc3[nH]cc(-c4ccc5ncn(C6CCCN(C(C)=O)C6)c5c4)c3n2)ccn1` (centres unmarked) [P-260, 1-[3-[6-[2-(2-methoxy-4-pyridyl)-5H-pyrrolo[2,3-b]pyrazin-7-yl]benzimidazol-1-yl]-1-piperidyl]ethanone], the IC50 in test [1] and in test [2] was 0.0001 to 1 µM in each case.

As to `COc1cnc2[nH]cc(-c3ccc4ncn(Cc5ccc(F)cc5)c4c3)c2c1` [P-110, 1-[(4-fluorophenyl)methyl]-6-(5-methoxy-1H-pyrrolo[2,3-b]pyridin-3-yl)benzimidazole], the IC50 in test [1] and in test [2] was 0.0001 to 1 µM in each case.

As to `CCCS(=O)(=O)Nc1cccc(-c2cnc3[nH]cc(-c4ccc5ncn(C(C)(C)C)c5c4)c3c2)c1` [P-216, N-[3-[3-(3-tert-butylbenzimidazol-5-yl)-1H-pyrrolo[2,3-b]pyridin-5-yl]phenyl]propane-1-sulfonamide], the IC50 in test [1] and in test [2] was 0.0001 to 1 µM throughout.

In the case of `COc1cc(C(=O)Nc2cnc3[nH]cc(-c4ccc5ncn(C6CCCNC6)c5c4)c3c2)ccn1` (centres unmarked) [P-247, 2-methoxy-N-[3-[3-(3-piperidyl)benzimidazol-5-yl]-1H-pyrrolo[2,3-b]pyridin-5-yl]pyridine-4-carboxamide], the IC50 in test [1] and in test [2] was 0.0001 to 1 µM in each case.

With `c1cc(-c2cnc3[nH]cc(-c4ccc5ncn(C6CCCNC6)c5c4)c3n2)cc(N2CCOCC2)n1` (centres unmarked) [P-262, 4-[4-[7-[3-(3-piperidyl)benzimidazol-5-yl]-5H-pyrrolo[2,3-b]pyrazin-2-yl]-2-pyridyl]morpholine], the IC50 in test [1] and in test [2] was 0.0001 to 1 µM in each case.

Regarding `C#Cc1cnc2[nH]cc(-c3ccc4ncn(C5CCCNC5)c4c3)c2n1` (centres unmarked) [P-270, 2-ethynyl-7-[3-(3-piperidyl)benzimidazol-5-yl]-5H-pyrrolo[2,3-b]pyrazine], the half-maximal inhibitory concentration (IC50) in test [1] and in test [2] was 0.0001 to 1 µM throughout.

For `O=S(=O)(c1cccc(-c2cnc3[nH]cc(-c4ccc5ncn(C6CCCNC6)c5c4)c3n2)c1)N1CCCC1` (centres unmarked) [P-237, 7-[3-(3-piperidyl)benzimidazol-5-yl]-2-(3-pyrrolidin-1-ylsulfonylphenyl)-5H-pyrrolo[2,3-b]pyrazine], the IC50 in test [1] and in test [2] was 0.0001 to 1 µM throughout.

For the compound `CC(C)(C)n1cnc2ccc(-c3c[nH]c4ncc(-c5cnn(C(F)F)c5)nc34)cc21` [P-255, 7-(3-tert-butylbenzimidazol-5-yl)-2-[1-(difluoromethyl)pyrazol-4-yl]-5H-pyrrolo[2,3-b]pyrazine], the IC50 in test [1] and in test [2] was 0.0001 to 1 µM each time.

In the case of `O=C(Nc1cccc(F)c1)c1cnc2[nH]cc(-c3ccc4ncn(C5CCCNC5)c4c3)c2c1` (centres unmarked) [P-178, N-(3-fluorophenyl)-3-[3-(3-piperidyl)benzimidazol-5-yl]-1H-pyrrolo[2,3-b]pyridine-5-carboxamide], the IC50 in test [1] and in test [2] was 0.0001 to 1 µM each time.

In the case of `COc1ncc(-c2cnc3[nH]cc(-c4ccc5ncn(C(C)(C)C)c5c4)c3n2)cn1` [P-263, 7-(3-tert-butylbenzimidazol-5-yl)-2-(2-methoxypyrimidin-5-yl)-5H-pyrrolo[2,3-b]pyrazine], the IC50 in test [1] and in test [2] was 0.0001 to 1 µM throughout.

With `COc1cnc2[nH]cc(-c3cnc4ncn(Cc5cc(C)on5)c4c3)c2c1` [P-144, 3-[[6-(5-methoxy-1H-pyrrolo[2,3-b]pyridin-3-yl)imidazo[4,5-b]pyridin-1-yl]methyl]-5-methyl-isoxazole], the IC50 in test [1] and in test [2] was 0.0001 to 1 µM throughout.

Regarding `CC(C)(C)n1cnc2ccc(-c3c[nH]c4ncc(-c5cccc(N6CCCCS6(=O)=O)c5)nc34)cc21` [P-227, 2-[3-[7-(3-tert-butylbenzimidazol-5-yl)-5H-pyrrolo[2,3-b]pyrazin-2-yl]phenyl]thiazinane 1,1-dioxide], the IC50 in test [1] and in test [2] was 0.0001 to 1 µM in each case.

Consider `CC(C)n1cnc2ccc(-c3c[nH]c4ncc(-c5cnn(CC(F)(F)F)c5)cc34)cc21` [P-268, 1-isopropyl-6-[5-[1-(2,2,2-trifluoroethyl)pyrazol-4-yl]-1H-pyrrolo[2,3-b]pyridin-3-yl]benzimidazole], for which the IC50 in test [1] and in test [2] was 0.0001 to 1 µM throughout.

As to `c1cc(-c2cnc3[nH]cc(-c4ccc5ncn(C6CCCNC6)c5c4)c3c2)cc(N2CCOCC2)n1` (centres unmarked) [P-223, 4-[4-[3-[3-(3-piperidyl)benzimidazol-5-yl]-1H-pyrrolo[2,3-b]pyridin-5-yl]-2-pyridyl]morpholine], the IC50 in test [1] and in test [2] was 0.0001 to 1 µM throughout.

On to `FC(F)(F)Cn1cc(-c2cnc3[nH]cc(-c4ccc5ncn(C6CCCNC6)c5c4)c3n2)cn1` (centres unmarked) [P-258, 7-[3-(3-piperidyl)benzimidazol-5-yl]-2-[1-(2,2,2-trifluoroethyl)pyrazol-4-yl]-5H-pyrrolo[2,3-b]pyrazine], for which the IC50 in test [1] and in test [2] was 0.0001 to 1 µM in each case.

Values taken from patent US10160755B2 (Plexxikon Inc., priority 2015, dated 2018).
